Like-named read-outs stand apart in the source and are kept apart here.
Experiments:
AsPC-1 cells = experiment: AsPC-1 CTG Assay (CellTiter-Glo cell viability); assay type: cell-based, human; details: AsPC-1, 72 h, first value of the cell, read-out: G12D/C/V Cell Proliferation CTG (72 h) AsPC-1
Procedure, shortened: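 Human pancreatic AsPC-1 or colon SW620 cells in RPMI 1640 with 10% FBS, seeded overnight, then exposed to serially diluted compound for 72 h at 37 °C. CellTiter-Glo luminescence normalized to DMSO control; IC50 from a 4-parameter logistic model.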

[1] = target: His-tagged KRAS G12D protein (Homo sapiens (Human), UniProt P01116, G12D); experiment: KRAS G12D TR-FRET Assay; assay type: binding; details: read-out: KRAS G12D Binding IC50
Procedure, shortened: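 His-tagged KRAS G12D (diluted to 20 nM in pH 7.4 HEPES buffer with 10 mM MgCl2 and 10 μM GDP) was preincubated with titrated compound for 30 min at room temperature. Biotinylated KRPep-2d peptide (diluted to 20 nM) was then added for 1 h, and displacement was monitored by TR-FRET.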

[2] = test system: Phosphorylation of ERK1/2 in AsPC-1 cells; experiment: Phospho-ERK1/2 MSD Assay; assay type: cell-based, human; details: read-out: 2 h p-ERK (AsPC-1 cells), IC50
Procedure, shortened: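 Read-out: MSD electrochemiluminescent detection of phosphorylated ERK1/2 in whole-cell lysates, fitted to a 4-parameter logistic curve for IC50. Prior to lysis, AsPC-1 cells (25,000 per well) received a 2 h compound dose-response at 37 °C.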

[3] = target: GDP-bound KRAS protein (aa 1-169), containing both G12D and C118A amino acid substitutions (Homo sapiens (Human), UniProt P01116, C118A/G12D); experiment: KRAS G12D Coupled Nucleotide Exchange Assay; assay type: biochemical; details: read-out: KRAS G12D Coupled Exchange IC50
Chain of GDP-bound KRAS protein (aa 1-169), containing both G12D and C118A amino acid substitutions (P01116 other isoform, or with tags, fused parts or gaps G12D/C118A): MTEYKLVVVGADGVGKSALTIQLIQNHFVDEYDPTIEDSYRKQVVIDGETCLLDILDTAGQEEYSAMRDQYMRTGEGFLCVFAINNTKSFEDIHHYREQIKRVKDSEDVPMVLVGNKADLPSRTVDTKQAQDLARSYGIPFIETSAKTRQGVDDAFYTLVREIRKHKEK

Chain of His-tagged KRAS G12D protein (P01116 other isoform, or with tags, fused parts or gaps G12D): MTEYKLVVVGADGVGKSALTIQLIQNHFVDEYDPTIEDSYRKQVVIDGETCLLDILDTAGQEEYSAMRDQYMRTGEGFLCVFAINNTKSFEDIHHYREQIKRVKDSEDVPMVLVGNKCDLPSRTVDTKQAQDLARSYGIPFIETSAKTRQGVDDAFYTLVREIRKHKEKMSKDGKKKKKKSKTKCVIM

SMILES | IC50 (AsPC-1 cells; Homo sapiens, ASPC1, 72 h) | IC50 [1] | IC50 ([2]; Homo sapiens, ASPC1, 2 h) | IC50 [3] | IC50 (AsPC-1 cells) | IC50 ([2]; 2 h)
O=C1OCCCc2c(Cl)cc3[nH]ncc3c2-c2ncc3c(nc(OC[C@@]45CCCN4C[C@H](F)C5)nc3c2F)N2CCOC[C@]3(C2)C[C@@H](C3)O1 [Example 312, (1S,3S)-11-chloro-34-fluoro-25-(((2R,7aS)-2-fluorotetrahydro-1H-pyrrolo[1,2-a]pyrrol-7a(5H)-yl)methoxy)-4,6,31-trioxa-14,15,20,24,26,28-hexaazaheptacyclo[26.4.1.1~1,3~.1~19,23~.0~10,18~.0~13,17~.0~22,27~]pentatriaconta-10,12,15,17,19(34),20,22,24,26-nonaen-5-one] | 1080 nM | 4 nM | 342 nM | 2 nM | – | –
O=C1OCCCc2c(Cl)cc3[nH]ncc3c2-c2ncc3c(nc(OC[C@@]45CCCN4C[C@H](F)C5)nc3c2F)N2CCOCC3(CC(C3)O1)C2 [Example 313] | 1210 nM | 19 nM | 462 nM | 11 nM | – | –
O=C1OCCCc2c(Cl)cc3[nH]ncc3c2-c2ncc3c(nc(OC[C@@]45CCCN4C[C@H](F)C5)nc3c2F)N2CCC[C@]3(C2)C[C@H](C3)O1 [Example 323, (1R,3S)-11-chloro-33-fluoro-25-(((2R,7aS)-2-fluorotetrahydro-1H-pyrrolo[1,2-a]pyrrol-7a(5H)-yl)methoxy)-4,6-dioxa-14,15,20,24,26,28-hexaazaheptacyclo[26.3.1.1~1,3~.1~19,23~.0~10,18~.0~13,17~.0~22,27~]tetratriaconta-10,12,15,17,19(33),20,22,24,26-nonaen-5-one] | – | 5 nM | – | 2 nM | 318 nM | 30.5 nM
O=C1OCCc2c(Cl)cc3[nH]ncc3c2-c2cc3nc(OC[C@@]45CCCN4C[C@H](F)C5)nc(c3cn2)N2CCC[C@]3(C2)C[C@H](C3)O1 [Example 343, (1R,3S)-10-chloro-24-(((2R,7aS)-2-fluorotetrahydro-1H-pyrrolo[1,2-a]pyrrol-7a(5H)-yl)methoxy)-4,6-dioxa-13,14,19,23,25,27-hexaazaheptacyclo[25.3.1.1~1,3~.1~18,22~.0~9,17~.0~12,16~.0~21,26~]tritriaconta-9,11,14,16,18(32),19,21,23,25-nonaen-5-one] | 953 nM | 22 nM | 45.2 nM | 13 nM | – | –
C[C@@]12COCCN(C1)c1nc(OC[C@@]34CCCN3C[C@H](F)C4)nc3cc(ncc13)-c1c(c(Cl)cc3[nH]ncc13)CCCOC(=O)O2 [Example 346, (26S)-18-chloro-4-(((2R,7aS)-2-fluorotetrahydro-1H-pyrrolo[1,2-a]pyrrol-7a(5H)-yl)methoxy)-26-methyl-23,25,28-trioxa-1,3,5,9,14,15-hexaazahexacyclo[24.4.1.1~6,10~.0~2,7~.0~11,19~.0~12,16~]dotriaconta-2,4,6(32),7,9,11,13,16,18-nonaen-24-one] | 297 nM | 5 nM | 13.4 nM | 2 nM | – | –
C[C@@H]1CN(c2nc3c4cnc(c(F)c4n2)-c2c(c(Cl)cc4[nH]ncc24)CCCOC(=O)O[C@@H]2COCCN3C2)CCN1 [Example 348, (26S)-18-chloro-32-fluoro-4-((3R)-3-methyl-1-piperazinyl)-23,25,28-trioxa-1,3,5,9,14,15-hexaazahexacyclo[24.4.1.1~6,10~.0~2,7~.0~11,19~.0~12,16~]dotriaconta-2,4,6,8,10(32),11,13,16,18-nonaen-24-one] | 2220 nM | 13 nM | 298 nM | 4 nM | – | –
Cc1cc2[nH]ncc2c2c1CCOC(=O)O[C@H]1C[C@]3(CCCN(C3)c3nc(OC[C@@]45CCCN4C[C@H](F)C5)nc4cc-2ncc34)C1 [Example 349, (1R,3S)-24-(((2R,7aS)-2-fluorotetrahydro-1H-pyrrolo[1,2-a]pyrrol-7a(5H)-yl)methoxy)-10-methyl-4,6-dioxa-13,14,19,23,25,27-hexaazaheptacyclo[25.3.1.1~1,3~.1~18,22~.0~9,17~.0~12,16~.0~21,26~]tritriaconta-9,11,14,16,18(32),19,21,23,25-nonaen-5-one] | 645 nM | 5 nM | 30.4 nM | 2 nM | – | –

Other lines, results leading:

IC50 (AsPC-1 cells; Homo sapiens, ASPC1, 72 h) | IC50 [1] | IC50 ([2]; Homo sapiens, ASPC1, 2 h) | IC50 [3] | IC50 (AsPC-1 cells) | IC50 ([2]; 2 h) | SMILES
153 nM | 10 nM | 71.6 nM | 4 nM | – | – | C[C@@]12COCCN(C1)c1nc(OC[C@@H]3CC[C@H]4COCCN43)nc3c(F)c(ncc13)-c1c(c(Cl)cc3[nH]ncc13)CCCOC(=O)O2 [Example 309, (26S)-18-chloro-32-fluoro-4-((6S,8aS)-hexahydro-1H-pyrrolo[2,1-c][1,4]oxazin-6-ylmethoxy)-26-methyl-23,25,28-trioxa-1,3,5,9,14,15-hexaazahexacyclo[24.4.1.1~6,10~.0~2,7~.0~11,19~.0~12,16~]dotriaconta-2,4,6,8,10(32),11,13,16,18-nonaen-24-one]
134 nM | 6 nM | 26.7 nM | 3 nM | – | – | CO[C@@H]1C[C@@H](COc2nc3c4cnc(c(F)c4n2)-c2c(c(Cl)cc4[nH]ncc24)CCCOC(=O)O[C@]2(C)COCCN3C2)N(C)C1 [Example 319, (26S)-18-chloro-32-fluoro-4-(((2S,4R)-4-methoxy-1-methyl-2-pyrrolidinyl)methoxy)-26-methyl-23,25,28-trioxa-1,3,5,9,14,15-hexaazahexacyclo[24.4.1.1~6,10~.0~2,7~.0~11,19~.0~12,16~]dotriaconta-2,4,6,8,10(32),11,13,16,18-nonaen-24-one]
50 nM | 5 nM | 29 nM | 3 nM | – | – | C[C@@H]1C[C@@H](COc2nc3c4cnc(c(F)c4n2)-c2c(c(Cl)cc4[nH]ncc24)CCCOC(=O)O[C@@H]2COCCN3C2)N(C)C1 [Example 328, (26S)-18-chloro-4-(((2S,4R)-1,4-dimethyl-2-pyrrolidinyl)methoxy)-32-fluoro-23,25,28-trioxa-1,3,5,9,14,15-hexaazahexacyclo[24.4.1.1~6,10~.0~2,7~.0~11,19~.0~12,16~]dotriaconta-2,4,6(32),7,9,11,13,16,18-nonaen-24-one]
156 nM | 8 nM | 5.7 nM | 3 nM | – | – | CN1CCC[C@H]1COc1nc2c3cnc(c(F)c3n1)-c1cc(O)cc3ccc(F)c(c13)CCOC(=O)O[C@]1(C)COCCN2C1 [Example 344, (16S)-23,32-difluoro-28-hydroxy-16-methyl-8-(((2S)-1-methyl-2-pyrrolidinyl)methoxy)-14,17,19-trioxa-3,7,9,11-tetraazahexacyclo[20.7.1.1~2,6~.1~11,16~.0~5,10~.0~26,30~]dotriaconta-1(30),2(32),3,5,7,9,22,24,26,28-decaen-18-one]
16 nM | 3 nM | 0.7 nM | 1 nM | – | – | C[C@@]12COCCN(C1)c1nc(OC[C@@]34CCCN3C[C@H](F)C4)nc3c(F)c(ncc13)-c1cc(O)cc3ccc(F)c(c13)CCOC(=O)O2 [Example 345, (16S)-23,32-difluoro-8-(((2R,7aS)-2-fluorotetrahydro-1H-pyrrolo[1,2-a]pyrrol-7a(5H)-yl)methoxy)-28-hydroxy-16-methyl-14,17,19-trioxa-3,7,9,11-tetraazahexacyclo[20.7.1.1~2,6~.1~11,16~.0~5,10~.0~26,30~]dotriaconta-1(30),2(32),3,5,7,9,22,24,26,28-decaen-18-one]
